From patent US20210317092A1 (BAYER PHARMA AKTIENGESELLSCHAFT, priority 2016, published 2021) come the findings set out here.

Experiment [1] addresses T1, human Bradykinin B1 receptor (Homo sapiens, UniProt P46663).
T1 construct: host or cells: CHO-K1
T1 sequence (P46663 1-353): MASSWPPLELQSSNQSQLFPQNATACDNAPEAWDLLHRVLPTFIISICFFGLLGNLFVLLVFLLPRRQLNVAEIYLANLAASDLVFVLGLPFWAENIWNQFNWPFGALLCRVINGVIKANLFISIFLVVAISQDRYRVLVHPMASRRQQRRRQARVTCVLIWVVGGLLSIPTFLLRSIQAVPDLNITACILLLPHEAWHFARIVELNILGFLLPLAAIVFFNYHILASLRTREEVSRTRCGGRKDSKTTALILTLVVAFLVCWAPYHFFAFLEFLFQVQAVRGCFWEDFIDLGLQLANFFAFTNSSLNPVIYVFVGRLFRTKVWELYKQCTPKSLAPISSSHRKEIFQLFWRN
The experiment in a line: Calcium flux Assay (FLIPR) with recombinant CHO-K1 cells expressing human Bradykinin B1 receptor, in presence (hB1 IC50) or absence (hB1 free IC50) of 0.1% BSA. It is filed as cell-based.

For experiment [2], the target named is T2, native human Bradykinin B1 receptor (Homo sapiens, UniProt P46663).
T2 construct: which express native human Bradykinin B1 receptor after induction with human IL-10; Coriell Institute; host or cells: IMR-90 human foetal lung fibroblasts, cytokine-induced
T2 sequence (P46663 1-353): T1 sequence (P46663 1-353)
The experiment in a line: Calcium flux Assay (FLIPR) with human fibroblasts expressing Bradykinin B1 receptor (hB1 IMR-90). It is filed as cell-based. As to conditions: IMR-90 human fibroblasts expressing native Bradykinin B1 receptor. The protocol: Calcium flux Assay (FLIPR) with human fibroblasts expressing Bradykinin B1 receptor (hB1 IMR-90)
The Calcium flux Assay was carried out utilising IMR-90 human foetal lung fibroblasts (American Type Culture Collection, Rockville, Md.; and Coriell Institute, Camden, N.J.), which express native human Bradykinin B1 receptor after induction with human […].
The fibroblasts were cultured in complete growth media comprised of Dulbecco's modified Eagle's medium (DMEM; Sigma) containing 10% foetal bovine serum, 4 mM L-glutamine, and 1% nonessential amino acids. The cells were maintained in a humidified atmosphere with 5% CO2 at 37° C. and were sub-cultured at a ratio of 1:3, every other day.
For the assay, IMR-90 fibroblasts were harvested using TrypLE Express (GIBCO/Invitrogen) and seeded into 384-well plates (Corning Cellbinding Surface, Cat. 3683) at a density of 15000 cells/well. The following day, cells were treated with 0.35 ng/mL human […] in 10% FBS/MEM for 3h to up-regulate Bradykinin B1 receptor. Induced cells were loaded with fluorescent calcium indicator by incubation with 2.5 μM Fluo-4/AM (Invitrogen) at 37° C., 5% CO2 for 2 h in the presence of 2.5 mM probenecid in 1% FBS/MEM. Extracellular dye was removed by washing with assay buffer (2.5 mM probenecid and 0.1% BSA in 20 mM HEPES/HBSS without bicarbonate or phenol red, pH 7.5). Compound examples were assayed at 8 concentrations in triplicate. After addition of compound examples to the cell plate and incubation for 30 min at 28° C., the addition of Bradykinin B1 agonist Lys-(Des-Arg)-Bradykinin (Bachem, Brackley) at a final concentration of EC90 was carried out on the FLIPR instrument while continuously monitoring Ca^2+-dependent fluorescence at 538 nm. A peptide antagonist Lys-(Des-Arg-Leu)-Bradykinin (Bachem, Brackley) at 20 µM was used to determine the full inhibition as control. IC50 values were determined by the same way described for the FLIPR assay with recombinant cells.

Setting [3] is: in absence of 0.1% BSA, read-out: hB1 free IC50.
Where [4] appears, read: in presence of 0.1% BSA, read-out: hB1 IC50.

Where two headings read alike, the source gives them in different places.

With `CCCOc1ccc(-c2ccc(NC(=O)C3(c4ccc(F)cc4F)CC3)cc2-c2nnn[nH]2)cn1` [Example 112, 1-(2,4-difluorophenyl)-N-[4-(6-propoxypyridin-3-yl)-3-(1H-tetrazol-5-yl)phenyl] cyclopropane-carboxamide], the IC50 amounted to 16.2 nM in experiment [1] (setting [3]), 44.9 nM in experiment [1] (setting [4]) and 20.4 nM in experiment [2].

For the compound `Cc1ccc(-c2c(F)cc(NC(=O)C3(c4cccc(Cl)c4)CC3)cc2-c2nnn[nH]2)cn1` [Example 245, 1-(3-chlorophenyl)-N-[3-fluoro-4-(6-methylpyridin-3-yl)-5-(1H-tetrazol-5-yl)phenyl] cyclopropane-carboxamide], the IC50 in experiment [1] (setting [3]) was determined as 8.11 nM; in experiment [2], 7.85 nM.

As for `COc1cnccc1-c1ccc(NC(=O)C2(c3cccc(Cl)c3)CC2)cc1-c1nnn[nH]1` [Example 327, 1-(3-chlorophenyl)-N-[4-(3-methoxypyridin-4-yl)-3-(1H-tetrazol-5-yl)phenyl]cyclopro-panecarboxa-mide], the IC50 in experiment [1] (setting [3]) amounted to 71.2 nM; in experiment [1] (setting [4]) it was 70.9 nM; in experiment [2] it was 164 nM.

For `CCOc1ccc(-c2c(F)cc(NC(=O)C3(c4cccc(Cl)c4)CC3)cc2-c2nnn[nH]2)cn1` [Example 236, 1-(3-chlorophenyl)-N-[4-(6-ethoxypyridin-3-yl)-3-fluoro-5-(1H-tetrazol-5-yl)phenyl] cyclopropane-carboxamide], the IC50 in experiment [1] (setting [3]) worked out at 2.9 nM; in experiment [2] it was 15.6 nM.

On to `O=C(Nc1ccc(-c2ccnc(C(F)(F)F)c2)c(-c2nnn[nH]2)c1)C1(c2cccc(Cl)c2)CC1` [Example 171, 1-(3-chlorophenyl)-N-{3-(1H-tetrazol-5-yl)-4-[2-(trifluoromethyl)pyridin-4-yl]phenyl} cyclopropane-carboxamide], for which the 50% inhibitory concentration (IC50) was 422 nM in experiment [1] (setting [3]), 358 nM in experiment [1] (setting [4]) and 281 nM in experiment [2].

In the case of `COc1ccc(-c2c(F)cc(NC(=O)C3(c4cccc(Cl)c4)CC3)cc2-c2nnn[nH]2)cc1OC` [Example 234, 1-(3-Chlorophenyl)-N-[2-fluoro-3′,4′-dimethoxy-6-(1H-tetrazol-5-yl)biphenyl-4-yl]cyclopropane carboxamide], the figures for the IC50 in experiment [1] (setting [3]), in experiment [1] (setting [4]) and in experiment [2] were 11 nM, 29.9 nM and 18.6 nM, respectively.

Consider `CCOc1ccc(-c2c(Cl)cc(NC(=O)C3(c4cccc(Cl)c4F)CC3)cc2-c2nnn[nH]2)cn1` [Example 248, N-[3-chloro-4-(6-ethoxypyridin-3-yl)-5-(1H-tetrazol-5-yl)phenyl]-1-(3-chloro-2-fluoropheny) cyclopropane-carboxamide], for which the half-maximal inhibitory concentration (IC50) in experiment [1] (setting [3]) turned out to be 14.4 nM; in experiment [2] it was 25.2 nM.

Regarding `CCOc1ccc(-c2ccc(NC(=O)C3(c4cccc(C(F)(F)F)c4)CC3)cc2-c2nnn[nH]2)cn1` [Example 98, N-[4-(6-ethoxypyridin-3-yl)-3-(1H-tetrazol-5-yl)phenyl]-1-[3-(trifluoromethyl)phenyl] cyclopropane-carboxamide], the IC50 in experiment [1] (setting [4]) stood at 8.67 nM; in experiment [2], 5.78 nM.

Turning to `COc1ccc(-c2ccc(NC(=O)C3(c4ccc(Cl)cn4)CC3)cc2-c2nnn[nH]2)cc1OC` [Example 23, 1-(5-chloropyridin-2-yl)-N-[3′,4′-dimethoxy-2-(1H-tetrazol-5-yl)biphenyl-4-yl]cyclopropane carboxamide], the IC50 in experiment [1] (setting [3]) was 145 nM; in experiment [1] (setting [4]), 176 nM; in experiment [2] it was 35.2 nM.

With `CCOc1cncc(-c2ccc(NC(=O)C3(c4ccc(C(F)(F)F)cc4)CC3)cc2-c2nnn[nH]2)c1` [Example 156, N-[4-(5-ethoxypyridin-3-yl)-3-(1H-tetrazol-5-yl)phenyl]-1-[4-(trifluoromethyl)phenyl] cyclopropane-carboxamide], the figures for the IC50 in experiment [1] (setting [3]), in experiment [1] (setting [4]) and in experiment [2] were 36.6 nM, 27.5 nM and 84.6 nM, respectively.

As to `Cc1cc(-c2ccc(NC(=O)C3(c4ccc(C(F)(F)F)cc4F)CC3)cc2-c2nnn[nH]2)ccn1` [Example 212, 1-[2-fluoro-4-(trifluoromethyl)phenyl]-N-[4-(2-methylpyridin-4-yl)-3-(1H-tetrazol-5-yl)phenyl] cyclopropane carboxamide], the values for the IC50 in experiment [1] (setting [3]) and in experiment [2] were 2.77 nM and 3.92 nM, respectively.

In the case of `Cn1ncc2ccc(-c3ccc(NC(=O)C4(c5ccc(C(F)(F)F)cc5F)CC4)cc3-c3nnn[nH]3)cc21` [Example 215, 1-[2-fluoro-4-(trifluoromethyl)phenyl]-N-[4-(1-methyl-1H-indazol-6-yl)-3-(1H-tetrazol-5-yl)phenyl] cyclopropane-carboxamide], the half-maximal inhibitory concentration (IC50) in experiment [1] (setting [3]) is 3.21 nM; in experiment [2] it was 8.48 nM.

As for `O=C(Nc1cc(F)c(-c2ccnc(C(F)(F)F)c2)c(-c2nnn[nH]2)c1)C1(c2cccc(Cl)c2)CC1` [Example 243, 1-(3-chlorophenyl)-N-{3-fluoro-5-(1H-tetrazol-5-yl)-4-[2-(trifluoromethyl)pyridin-4-yl]phenyl} cyclopropane-carboxamide], the concentration for half-maximal inhibition (IC50) in experiment [1] (setting [3]) is 203 nM; in experiment [2], 575 nM.

As to `O=C(Nc1ccc(-c2ccc(C(F)F)nc2)c(-c2nnn[nH]2)c1)C1(c2ccc(F)c(F)c2)CC1` [Example 207, N-{4-[6-(difluoromethyl)pyridin-3-yl]-3-(1H-tetrazol-5-yl)phenyl}-1-(3,4-difluorophenyl) cyclopropane-carboxamide], the values for the IC50 in experiment [1] (setting [3]) and in experiment [2] were 22.4 nM and 14.9 nM, respectively.

Regarding `O=C(Nc1ccc(-c2ccc(C(F)(F)F)nc2)c(-c2nnn[nH]2)c1)C1(c2ccc(Cl)c(F)c2)CC1` [Example 137, 1-(4-Chloro-3-fluorophenyl)-N-{3-(1H-tetrazol-5-yl)-4-[6-(trifluoromethyl)pyridin-3-yl]phenyl} cyclopropane-carboxamide], the IC50 in experiment [1] (setting [3]) is 17.1 nM; in experiment [2], 43.9 nM.

As for `Cc1ccc(-c2c(F)cc(NC(=O)C3(c4ccc(C(F)(F)F)cc4F)CC3)cc2-c2nnn[nH]2)cn1` [Example 266, N-[3-fluoro-4-(6-methylpyridin-3-yl)-5-(1H-tetrazol-5-yl)phenyl]-1-[2-fluoro-4-(trifluoromethyl)phenyl]cyclopro-panecarboxamide], the figures for the IC50 in experiment [1] (setting [3]) and in experiment [2] were 3.45 nM and 2.38 nM, respectively.

Regarding `CN1CCN(c2ccc(-c3ccc(NC(=O)C4(c5cccc(Cl)c5)CC4)cc3-c3nnn[nH]3)cc2)CC1` [Example 330, 1-(3-chlorophenyl)-N-[4′-(4-methylpiperazin-1-yl)-2-(1H-tetrazol-5-yl)biphenyl-4-yl]cyclopropane carboxamide], the concentration for half-maximal inhibition (IC50) in experiment [1] (setting [3]) came out at 141 nM; in experiment [1] (setting [4]) it was 158 nM.

As to `COc1ccc(-c2ccc(NC(=O)C3(c4ccc(F)cc4F)CC3)cc2-c2nnn[nH]2)cc1OC` [Example 2, 1-(2,4-difluorophenyl)-N-[3′,4′-dimethoxy-2-(1H-tetrazol-5-yl)biphenyl-4-yl]cyclopropane carboxamide], the half-maximal inhibitory concentration (IC50) in experiment [1] (setting [4]) turned out to be 58.9 nM.

Take `CCOc1ncc(-c2ccc(NC(=O)C3(c4cccc(Cl)c4F)CC3)cc2-c2nnn[nH]2)cc1C(F)(F)F` [Example 159, 1-(3-chloro-2-fluorophenyl)-N-{4-[6-ethoxy-5-(trifluoromethyl)pyridin-3-yl]-3-(1H-tetrazol-5-yl)phenyl} cyclopropane-carboxamide]: the figures for the IC50 in experiment [1] (setting [3]) and in experiment [1] (setting [4]) were 40.3 nM and 585 nM, respectively.

Take `O=C(Nc1ccc(-c2ccc(C(F)(F)F)nc2)c(-c2nnn[nH]2)c1)C1(c2ccc(F)cc2F)CC1` [Example 142, 1-(2,4-difluorophenyl)-N-{3-(1H-tetrazol-5-yl)-4-[6-(trifluoromethyl)pyridin-3-yl]phenyl} cyclopropane-carboxamide]: in experiment [1] (setting [3]), the IC50 was found to be 201 nM.

As for `O=C(Nc1cc(Cl)c(-c2ccc(C(F)(F)F)nc2)c(-c2nnn[nH]2)c1)C1(c2ccc(C(F)(F)F)cc2F)CC1` [Example 304, N-{3-chloro-5-(1H-tetrazol-5-yl)-4-[6-(trifluoromethyl)pyridin-3-yl]phenyl}-1-[2-fluoro-4-(trifluoromethyl)phenyl]cyclopro-panecarboxamide], the IC50 in experiment [1] (setting [3]) amounted to 18.5 nM.
